Patent US20240116985A1, “STAPLED PEPTIDES AND METHODS THEREOF” (priority 2020, published 2024)
pIC50: −log10 of the molar value. In brackets after ≈: the same amount, converted by molar mass. Where two headings read alike, the source gives them in different places.

Assays:
Solubility in PBS = assay type: physicochemical
Summary of the method: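 The PBS solution was ultracentrifuged and the supernatant analyzed by HPLC. Its peak area was divided by that of a 50 μM peptide DMSO reference injection and multiplied by 50 uM to give solubility.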

[1] = target: T1, beta-catenin/TCF4 engagement (Homo sapiens, UniProt P35222); test: Nano-BRET target engagement assay (B-cat-Halo & TCF4-Luc in HEK293 cells); assay type: cell-based; details: for inhibition at 10 µM: HEK293, 10 uM, read-out: NanoBRET % inh @ 10 uM
T1 construct: expressed in transfected cells; host or cells: HEK293
T1 sequence (P35222 1-781): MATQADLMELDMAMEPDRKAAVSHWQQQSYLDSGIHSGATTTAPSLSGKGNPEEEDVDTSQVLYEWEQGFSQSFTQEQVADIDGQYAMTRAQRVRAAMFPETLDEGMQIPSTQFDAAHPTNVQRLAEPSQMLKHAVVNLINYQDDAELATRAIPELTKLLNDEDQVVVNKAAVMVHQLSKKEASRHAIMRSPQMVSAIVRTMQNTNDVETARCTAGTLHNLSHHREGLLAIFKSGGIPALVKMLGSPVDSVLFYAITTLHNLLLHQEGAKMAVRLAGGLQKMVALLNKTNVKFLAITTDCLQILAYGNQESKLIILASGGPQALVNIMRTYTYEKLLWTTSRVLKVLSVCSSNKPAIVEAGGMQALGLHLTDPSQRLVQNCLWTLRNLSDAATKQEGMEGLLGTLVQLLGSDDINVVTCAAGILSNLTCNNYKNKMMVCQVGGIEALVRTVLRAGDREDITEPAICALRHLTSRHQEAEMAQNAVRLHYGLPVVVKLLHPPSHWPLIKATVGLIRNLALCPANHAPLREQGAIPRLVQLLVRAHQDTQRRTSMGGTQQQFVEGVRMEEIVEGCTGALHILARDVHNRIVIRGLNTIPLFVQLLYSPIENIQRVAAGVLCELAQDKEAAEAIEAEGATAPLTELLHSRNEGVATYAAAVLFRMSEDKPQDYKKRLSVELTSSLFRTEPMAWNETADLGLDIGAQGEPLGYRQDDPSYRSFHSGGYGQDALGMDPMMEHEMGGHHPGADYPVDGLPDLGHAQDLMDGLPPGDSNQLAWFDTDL

[2] = target: T2, full-length beta-Catenin (Uniprot ID P35222) (Homo sapiens, UniProt P35222); test: Fluorescence polarization IC50 (beta-catenin / 5FAM-TCF4 10-53 competition); assay type: binding
T2 construct: 10 nM full-length beta-Catenin (Uniprot ID P35222)
T2 sequence (P35222 1-781): T1 sequence (P35222 1-781)

CHI Log D procedure = assay type: physicochemical; details: for CHI Log D: pH 7.4; for chromatographic logD: pH 7.4, CHI Log D
[3] = fluorescence polarization, beta-catenin, read-out: FP EC50
[4] = absolute IC50, read-out: NanoBRET Abs IC50

Structure (SMILES)	Solubility (Solubility in PBS)	inhibition at 10 µM [1]	pIC50 ([1]; read-out: NanoBRET Abs IC50)	pIC50 [2, 3]	pIC50 ([2]; read-out: beta-Catenin FP IC50)	CHI Log D (CHI Log D procedure)	Solubility (Solubility in PBS; Solubility (uM))	pIC50 [1, 4]	chromatographic logD (CHI Log D procedure)	pIC50 ([1]; read-out: NanoBRET IC50)
CC(=O)N1CCC[C@]12CC=CCCCC1(CCCC=CCCCCOC(=O)N3CC[C@@](C(=O)N[C@@H](Cc4ccsc4)C(=O)N[C@@H](Cc4csc5ccccc45)C(=O)N[C@@H](CCC(N)=O)C(=O)N[C@H](C)C(N)=O)(C3)NC(=O)[C@H](CC(N)=O)NC(=O)[C@H](Cc3ccccc3)NC(=O)[C@H](C)NC(=O)[C@H](C)NC(=O)[C@H](CC(=O)O)NC(=O)[C@H](CC(=O)O)NC1=O)NC(=O)[C@H](CC(C)(C)C)NC(=O)[C@H](CC(=O)O)NC2=O (stereo partly drawn) [I-831, Ac-PL3-Asp-Npg-B5-Asp-Asp-Ala-Ala-Phe-Asn-PyrS3-3Thi-BztA-Gln-dAla-NH2]	50 µM (≈ 100 µg/mL)	32.4%	4.59	7.96	7.96	2.075	–	–	–	–
CC(=O)N1CCC[C@]12CC=CCCCC1(CCCC=CCCCCOC(=O)N3CC[C@@](C(=O)N[C@@H](Cc4ccsc4)C(=O)N[C@@H](Cc4csc5ccccc45)C(=O)N[C@@H](Cc4c[nH]cn4)C(=O)N[C@H](C)C(N)=O)(C3)NC(=O)[C@H](CC(N)=O)NC(=O)[C@H](Cc3ccccc3)NC(=O)[C@H](C)NC(=O)[C@H](C)NC(=O)[C@H](CC(=O)O)NC(=O)[C@H](CC(=O)O)NC1=O)NC(=O)[C@H](CC(C)(C)C)NC(=O)[C@H](CC(=O)O)NC2=O (stereo partly drawn) [I-833, Ac-PL3-Asp-Npg-B5-Asp-Asp-Ala-Ala-Phe-Asn-PyrS3-3Thi-BztA-His-dAla-NH2]	50 µM (≈ 101 µg/mL)	–	4.32	8.10	8.10	2.146	–	–	–	–
CC(=O)N1CCC[C@]12CC=CCCCC1(CCCC=CCCCCOC(=O)N3CC[C@@](C(=O)N[C@@H](Cc4ccsc4)C(=O)N[C@@H](Cc4csc5ccccc45)C(=O)N[C@@H](CC(N)=O)C(=O)N[C@H](C)C(N)=O)(C3)NC(=O)[C@H](CC(N)=O)NC(=O)[C@H](Cc3ccccc3)NC(=O)[C@H](C)NC(=O)[C@H](C)NC(=O)[C@H](CC(=O)O)NC(=O)[C@H](CC(=O)O)NC1=O)NC(=O)[C@H](CC(C)(C)C)NC(=O)[C@H](CC(=O)O)NC2=O (stereo partly drawn) [I-835, Ac-PL3-Asp-Npg-B5-Asp-Asp-Ala-Ala-Phe-Asn-PyrS3-3Thi-BztA-Asn-dAla-NH2]	50 µM (≈ 99.5 µg/mL)	27.6%	4.42	7.96	7.96	2.109	–	–	–	–
CC(=O)N1CCC[C@]12CC=CCCCC1(CCCC=CCCCOC(=O)N3CC[C@@](C(=O)N[C@@H](Cc4ccsc4)C(=O)N[C@@H](Cc4csc5ccccc45)C(=O)N[C@@H](CCC(N)=O)C(N)=O)(C3)NC(=O)[C@H](CC(N)=O)NC(=O)[C@H](Cc3ccccc3)NC(=O)[C@H](C)NC(=O)[C@H](C)NC(=O)[C@H](CC(N)=O)NC(=O)[C@H](CC(=O)O)NC1=O)NC(=O)[C@H](CC(C)(C)C)NC(=O)[C@H](CC(=O)O)NC2=O (stereo partly drawn) [I-836, Ac-PL3-Asp-Npg-B5-Asp-Asn-Ala-Ala-Phe-Asn-PyrS2-3Thi-BztA-Gln-NH2]	–	–	–	–	7.96	–	41 µM (≈ 78.6 µg/mL)	4.77	2.22	–
CC(=O)N1CCC[C@]12CC=CCCCC1(CCCC=CCCCOC(=O)N3CC[C@@](C(=O)N[C@@H](Cc4ccsc4)C(=O)N[C@@H](Cc4csc5ccccc45)C(=O)N[C@@H](Cc4c[nH]cn4)C(N)=O)(C3)NC(=O)[C@H](CC(N)=O)NC(=O)[C@H](Cc3ccccc3)NC(=O)[C@H](C)NC(=O)[C@H](C)NC(=O)[C@H](CC(N)=O)NC(=O)[C@H](CC(=O)O)NC1=O)NC(=O)[C@H](CC(C)(C)C)NC(=O)[C@H](CC(=O)O)NC2=O (stereo partly drawn) [I-837, Ac-PL3-Asp-Npg-B5-Asp-Asn-Ala-Ala-Phe-Asn-PyrS2-3Thi-BztA-His-NH2]	–	–	–	–	8.30	–	14 µM (≈ 27 µg/mL)	4.62	2.3	–
CC(=O)N1CCC[C@]12CC=CCCCC1(CCCC=CCCCOC(=O)N3CC[C@@](C(=O)N[C@@H](Cc4ccsc4)C(=O)N[C@@H](Cc4csc5ccccc45)C(=O)N[C@@H](CCC(N)=O)C(N)=O)(C3)NC(=O)[C@H](CC(N)=O)NC(=O)[C@H](Cc3ccccc3)NC(=O)[C@H](C)NC(=O)[C@H](C)NC(=O)[C@H](CCC(N)=O)NC(=O)[C@H](CC(=O)O)NC1=O)NC(=O)[C@H](CC(C)(C)C)NC(=O)[C@H](CC(=O)O)NC2=O (stereo partly drawn) [I-838, Ac-PL3-Asp-Npg-B5-Asp-Gln-Ala-Ala-Phe-Asn-PyrS2-3Thi-BztA-Gln-NH2]	–	–	–	–	7.92	–	41 µM (≈ 79.2 µg/mL)	4.76	2.19	–
CC(=O)N1CCC[C@]12CC=CCCCC1(CCCC=CCCCOC(=O)N3CC[C@@](C(=O)N[C@@H](Cc4ccsc4)C(=O)N[C@@H](Cc4csc5ccccc45)C(=O)N[C@@H](Cc4c[nH]cn4)C(N)=O)(C3)NC(=O)[C@H](CC(N)=O)NC(=O)[C@H](Cc3ccccc3)NC(=O)[C@H](C)NC(=O)[C@H](C)NC(=O)[C@H](CCC(N)=O)NC(=O)[C@H](CC(=O)O)NC1=O)NC(=O)[C@H](CC(C)(C)C)NC(=O)[C@H](CC(=O)O)NC2=O (stereo partly drawn) [I-839, Ac-PL3-Asp-Npg-B5-Asp-Gln-Ala-Ala-Phe-Asn-PyrS2-3Thi-BztA-His-NH2]	–	–	–	–	8.15	–	13 µM (≈ 25.2 µg/mL)	4.38	2.27	–
CC(=O)N1CCC[C@]12CC=CCCCC1(CCCC=CCCCOC(=O)N3CC[C@@](C(=O)N[C@@H](Cc4ccsc4)C(=O)N[C@@H](Cc4csc5ccccc45)C(=O)N[C@@H](CCC(N)=O)C(N)=O)(C3)NC(=O)[C@H](CC(N)=O)NC(=O)[C@H](Cc3ccccc3)NC(=O)[C@H](C)NC(=O)[C@H](C)NC(=O)[C@H](CCCNC(N)=O)NC(=O)[C@H](CC(=O)O)NC1=O)NC(=O)[C@H](CC(C)(C)C)NC(=O)[C@H](CC(=O)O)NC2=O (stereo partly drawn) [I-840, Ac-PL3-Asp-Npg-B5-Asp-Cit-Ala-Ala-Phe-Asn-PyrS2-3Thi-BztA-Gln-NH2]	–	–	–	–	7.80	–	32 µM (≈ 62.7 µg/mL)	4.65	2.19	–
CC(=O)N1CCC[C@]12CC=CCCCC1(CCCC=CCCCOC(=O)N3CC[C@@](C(=O)N[C@@H](Cc4ccsc4)C(=O)N[C@@H](Cc4csc5ccccc45)C(=O)N[C@@H](Cc4c[nH]cn4)C(N)=O)(C3)NC(=O)[C@H](CC(N)=O)NC(=O)[C@H](Cc3ccccc3)NC(=O)[C@H](C)NC(=O)[C@H](C)NC(=O)[C@H](CCCNC(N)=O)NC(=O)[C@H](CC(=O)O)NC1=O)NC(=O)[C@H](CC(C)(C)C)NC(=O)[C@H](CC(=O)O)NC2=O (stereo partly drawn) [I-841, Ac-PL3-Asp-Npg-B5-Asp-Cit-Ala-Ala-Phe-Asn-PyrS2-3Thi-BztA-His-NH2]	–	–	–	–	7.92	–	14 µM (≈ 27.6 µg/mL)	4.46	2.26	–
CC(=O)N1CCC[C@]12CC=CCCCC1(CCCC=CCCCOC(=O)N3CC[C@@](C(=O)N[C@@H](Cc4ccsc4)C(=O)N[C@@H](Cc4csc5ccccc45)C(=O)N[C@@H](CCC(N)=O)C(N)=O)(C3)NC(=O)[C@H](CC(N)=O)NC(=O)[C@H](Cc3ccccc3)NC(=O)[C@H](C)NC(=O)[C@H](C)NC(=O)[C@H](Cc3ccc(O)cc3)NC(=O)[C@H](CC(=O)O)NC1=O)NC(=O)[C@H](CC(C)(C)C)NC(=O)[C@H](CC(=O)O)NC2=O (stereo partly drawn) [I-842, Ac-PL3-Asp-Npg-B5-Asp-Tyr-Ala-Ala-Phe-Asn-PyrS2-3Thi-BztA-Gln-NH2]	10 µM (≈ 19.7 µg/mL)	–	–	–	7.47	–	–	4.32	2.39	–
CC(=O)N1CCC[C@]12CC=CCCCC1(CCCC=CCCCOC(=O)N3CC[C@@](C(=O)N[C@@H](Cc4ccsc4)C(=O)N[C@@H](Cc4csc5ccccc45)C(=O)N[C@@H](CCC(N)=O)C(N)=O)(C3)NC(=O)[C@H](CC(N)=O)NC(=O)[C@H](Cc3ccccc3)NC(=O)[C@H](C)NC(=O)[C@H](C)NC(=O)[C@H]([C@@H](C)O)NC(=O)[C@H](CC(=O)O)NC1=O)NC(=O)[C@H](CC(C)(C)C)NC(=O)[C@H](CC(=O)O)NC2=O (stereo partly drawn) [I-844, Ac-PL3-Asp-Npg-B5-Asp-Thr-Ala-Ala-Phe-Asn-PyrS2-3Thi-BztA-Gln-NH2]	–	–	–	–	8.22	–	35 µM (≈ 66.6 µg/mL)	–	2.31	4.97
